From patent US20020136691A1, “Pharmacological evaluation test (PET) in animals for continuous assessment of physiological functions” (priority 2000, published 2002) come the findings set out here.

The structures appear in SMILES notation.

In data set [1] the test system is Sprague Dawley rats. Briefly: Renal function monitoring (urine collection in metabolism cages). In kind it is in vivo. The following applies: 10 and 30 mg/kg p.o., acute; males and females (FIG. 4).
Method: Renal function monitoring was conducted simultaneously with cardiovascular testing. Urine was collected for 0-8 and 8-24 hour time-points. Prior to telemetry data collection, DSI receivers equipped with special mounting strips were hung upside down on metabolism racks (Lab Products, Maywood, N.J.). Metabolism cages were then suspended from the DSI receivers and assembled to provide for food, water, and urine collection. […] Rats were weighed and placed into the recording metabolism cages for a baseline collection period (i.e., 30 minutes). After baseline, each rat was removed, dosed and returned. Pre-weighed collection tubes were placed under each metabolism cage. At 8 hours, the collection tubes were removed, weighed, and replaced with another set of pre-weighed tubes for the 8-24 hour time-point. At 24 hours, collection tubes were again removed and weighed. Following the 24 hour urine collection, rats were anesthetized and blood was collected.
Renal function was evaluated in the cardiovascular/renal function arm. Urine volume was calculated gravimetrically at each time-point. Urine flow was then calculated by (urine volume/time times or ×100/body weight (g)). Flow values were then plotted as the mean ±standard deviation for each group. […] Statistical significance (p<0.05) was assessed using the paired Student's t test.
Data set [2] is described as follows: Body weight, PET rat study. In kind it is in vivo, Sprague Dawley rats. The following applies: 300 and 1000 mg/kg p.o., subacute; males and females (FIG. 3). The procedure: FIG. 3. […] Individual rat body weights were recorded daily in grams using an Ohaus Navigator™ digital balance.
Male and female Sprague Dawley rats from Charles River were used in these experiments. For the “standard” protocol, a total of 48 rats were used. Twenty-four rats (12 female rats and 12 male rats) were placed in the acute pulmonary function/CNS evaluation arm of the study, and 24 rats (12 female rats and 12 male rats) were placed in the subacute cardiovascular/renal arm of the study. Rats in both arms were further divided into 4 subgroups (3 male rats and 3 female rats) which were dosed with vehicle or compound at dose 1, dose 2; or dose 3. Rats in the pulmonary function/CNS evaluation arm of the study were administered a single dose of vehicle or compound. […]
Rats in the cardiovascular/renal function arm of the study (with telemetry implants) were administered daily doses of vehicle or compound for 5 days. Blood pressure, heart rate and motility were continuously monitored 24 hours/day over four days via telemetry recording. Urine was collected 0-8 and 8-24 hours post-dosing on Days 1 and 4 and assessed for changes in volume output and electrolyte excretion. […]
Cardiovascular function and motility were assessed in conscious freely moving rats using DSI telemetry recording equipment. […] Parameters monitored included blood pressure (BP), heart rate (HR) and activity. […]

Data set [3] has as its system Sprague Dawley rats. Briefly: Cardiovascular monitoring (blood pressure, heart rate) by DSI telemetry. It is filed as in vivo. The procedure:
For the cardiovascular/renal function arm, a Data Sciences International (DSI, St Paul, Minn.) TA11PA-C40 implant was placed in the abdominal aorta of each rat.
Cardiovascular function and motility were assessed in conscious freely moving rats using DSI telemetry recording equipment. On the day of recording, the rats were placed into metabolism cages for simultaneous urine collection. Parameters monitored included blood pressure (BP), heart rate (HR) and activity. Measurements were taken at scheduled intervals (i.e., 10 sec. of data collection once every 2 min. for each rat) over 24 hours. An appropriate baseline period of at least 30 minutes was collected prior to animal dosing. For dosing, rats were briefly removed from their cage, weighed, dosed and returned.
Blood pressure, heart rate and activity were measured for 10 seconds once every 2 minutes for 24 hours. Blood pressure and heart rate were routinely evaluated at baseline, 30 min, 1 h, 2 h, 4 h, 6 h, 8 h, 12 h, 16 h and 20 h post-administration. The last 20 minutes before the start of treatment on Day 1, time-point values were averaged and taken as the baseline value for each rat. The other time-point values were obtained by averaging data 10 minutes prior and 10 minutes post each time-point. […] An analysis of variance was performed with the factors: treatment, animal (according to treatment), time, and treatment time interaction; time incorporated all measurements on the four days. The adjusted mean values post-treatment were compared with baseline. If there was a significant treatment time interaction, tests were performed for comparing the three treatment groups for each time-point. If such a test was significant, the adjusted mean values of the treated group were compared with the concurrent vehicle group for this time-point.

In data set [4] the test system is Wistar rats. The following applies: 1, 3 or 10 mg/kg p.o., acute.
Data set [5] relates to Sprague Dawley rats. In kind it is in vivo.
Method: Additional CNS monitoring was performed following pulmonary function assessment in that arm of the study. Rats were returned to their home cages and at 65 minutes post-dosing, the rats were placed in Plexiglas observation cylinders. Compound treated rats were systematically compared to vehicle treated rats for behavioral, neurologic and autonomic changes according to a modification of the method described by Irwin. […] The following functions were assessed: increased/decreased motor activity, ataxia, paralysis, tremor, convulsions, abnormal respiration, enhanced salivation, skin color, abnormal feces, death, righting reflex, visual orientation, grip reflex, muscle tone, rectal body temperature, and tail pinch. Body temperatures were also recorded both prior to dosing (baseline) and during modified Irwin testing post-dosing using a Yellow Springs Instruments Telethermometer and rectal probe or equivalent. Following modified Irwin testing, rats were administered anesthesia to effect and blood was collected.
For body temperatures, CBC values, clinical chemistry values, plasma levels and organ weight ratios, means were calculated (±standard deviation or standard error of the mean) and reported where applicable. Statistical evaluations for compound related effects were performed using the Student's t test (paired) and reported as significant if p<0.05.
In data set [6] the test system is Sprague Dawley rats. Nature of the data set: Pulmonary function, BUXCO unrestrained whole body plethysmograph. It is filed as in vivo. The procedure:
For rats in the pulmonary/CNS arm, pulmonary function (respiratory frequency and tidal volume) was assessed incorporating the BUXCO Unrestrained Whole Body Plethysmograph technique. Rats were placed in a BUXCO chamber, and a 10-minute baseline-recording period was collected. Following the baseline-recording period, the rats were removed from the chambers, orally dosed and returned for a 60-minute period of data collection. At the conclusion of the experiment, the rats were removed from the chambers, and tested for modified Irwin profiling.
The respiratory signal was measured continuously for 10 minutes prior to dosing and […] post-dosing. Respiratory frequency and tidal volume were then extracted from this respiratory signal, and evaluated on a breath-by-breath basis over the course of a one-minute period. These calculated breath-by-breath values for respiratory frequency and tidal volume were averaged over 5-minute segments for the extent of the monitoring period. The time course for these values was then plotted as the mean ±standard deviation for each group studied. An analysis of variance similar to that described above for cardiovascular parameters was also performed.

Take `NS(=O)(=O)c1cc(C(=O)O)c(NCc2ccco2)cc1Cl` [furosemide]: the Urine output result in data set [1] is reported as “dose dependently increased”.
In the case of `C[C@]12C=CC(=O)C=C1CC[C@@H]1[C@@H]2[C@@H](O)C[C@@]2(C)[C@H]1CC[C@]2(O)C(=O)CO` [prednisolone], in data set [2], the Body weight entry is reported as “decrease in body weight”. For the same compound, the “Effects in the CV system” value in data set [3] (300 and 1000 mg/kg p.o.) is reported as “No relevant effects”.
With `COC(=O)C1=C(C)NC(C)=C(C(=O)OC)C1c1ccccc1[N+](=O)[O-]` [nifedipine], in data set [4], the Body temperature entry is given as “No effects”, the Heart rate entry is “dose dependent increase”, the Motility result is given as “No effects” and the Respiration entry was “No effects”.
On to `C[C@H](N)Cc1ccccc1` [d-amphetamine], for which, in data set [5] (2 and 8 mg/kg p.o., male and female, acute and subacute), the “Overt behavioral effects observed” value is “increased motility, sniffing, rearing, head weaving and vocalization”. Further, the Respiratory frequency result in data set [6] (2 and 8 mg/kg p.o., male and female, acute and subacute dosing (FIG. 1)) was “increased in a dose dependent manner”. Besides, in data set [3] (males, 8 mg/kg p.o.), the BP result was “slightly increased” and the HR entry is reported as “slightly increased”.
For the compound `CN1C(=O)CN=C(c2ccccc2)c2cc(Cl)ccc21` [diazepam], the “Modified Irwin profiling” value in data set [5] (rat, in vivo) was “dose dependent effects on motility, coordination, muscle tone and body temperature”. Also, in data set [6] (20 and 80 mg/kg p.o.), the “Effects in the pulmonary system” value is listed as “No relevant effects”. In data set [3] (20 and 80 mg/kg p.o.), the “Effects in the CV system” value is “No relevant effects”.
